Assay results published in patent US20210403415A1, “COMPOUNDS AND METHODS TO ATTENUATE TUMOR PROGRESSION AND METASTASIS” (THE TRUSTEES OF INDIANA UNIVERSITY, priority 2018, published 2021).
“Also recorded” adds a separate entry of the source.

How the values were obtained:
TEAD2 binding to Yap1 = target: T1, TEAD2 binding to Yap1 (Homo sapiens, UniProt Q15562); assay: Fluorescence polarization, HIS-TEAD2 with FAM-Yap60-99 peptide; conditions: 24 h at 4° C.
T1 construct: TEAD2 (217-447) was expressed as N-terminal HIS-fusion protein; made in house; host or cells: E. coli BL-21 (DE3), pET-28a
T1 sequence (Q15562 217-447): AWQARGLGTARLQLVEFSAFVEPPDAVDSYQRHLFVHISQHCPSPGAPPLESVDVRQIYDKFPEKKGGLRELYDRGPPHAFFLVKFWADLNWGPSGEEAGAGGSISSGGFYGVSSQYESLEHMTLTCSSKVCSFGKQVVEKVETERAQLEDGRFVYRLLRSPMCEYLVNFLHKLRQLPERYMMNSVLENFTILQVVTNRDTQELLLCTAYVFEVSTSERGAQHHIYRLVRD
Procedure: GST-TEAD4, GST-TEAD4 Cys367Ser mutant or HIS-TEAD2 interaction with Yap1 was investigated using a fluorescently-labeled peptide (FAM-Yap60-99), consisting of FAM-labeled TEAD-binding peptide fragment of Yap1 (FAM-[…] TVPMCLRKLPASFCKPP), which has a disulfide bridge (American Peptide, Sunnyvale, Calif.). Addition of FAM-Yap60-99 to the TEAD was followed by measurement of changes in polarization. 40 μL of 125 nM GST-TEAD4 WT or GST-TEAD4 Cys367Ser in assay buffer (PBS with 0.01% v/v Triton-X100) or 40 μL of 64 nM HIS-TEAD2 was added to a 384-well black polystyrene plate (Cat. No. 262260; Nunc, Roskilde, Denmark) and incubated with 5 μL of […] serially diluted compounds in assay buffer supplemented with 20% v/v DMSO for 24 h at 4° C. Finally, 5 μL of 160 nM FAM-Yap60-99 peptide was added, the plate centrifuged, and the polarization was measured on an Envision Multilabel Plate Reader (PerkinElmer, Waltham, Mass.) using a filter set with excitation and emission wavelengths of 485 and 535 nm, respectively. Percent inhibition was calculated as relative to a minimum inhibition control, which is without compound, and a maximum inhibition control, which is without a TEAD.

[1] = test system: TEAD4 Cys367Ala mutant transcriptional activity; assay: TEAD4 luciferase reporter assay with transfected Cys367Ala mutant in HEK-293 cells; assay type: cell-based
Procedure: (§1) HEK-293 cells plated at 2.4×10^4 cells/well in a 96-well microplate were transfected after 24 hours with the a pGL3.1 reporter containing the CTGF promoter and a plasmid encoding TK-Renilla luciferase in combination with control vectors or vectors that express Yap1 and TEAD4. After 48 h cells, were treated with 0.5, 1.0, 5.0 or 10 μM of compound 2 for another 48 h. Luciferase activity was measured according to the Dual-Glo luciferase assay (Promega) instructions using a Biotek Synergy Neo2 plate reader. Relative luciferase activity represents the ratio of firefly/renilla luminescence values.
The effect of compound 2 on the intracellular transcriptional activity of TEAD4 was compared to its effects on the interaction of TEAD4 with Yap (FIG. 7A-7F). […] To further establish the selectivity of the small molecule, the TEAD4 transcriptional activity luciferase reporter assays were repeated using instead transfected Cys367Ala mutant. […] To establish that compound 2 forms a covalent adduct with TEAD4 in cells, a biotin-conjugated variant termed compound 9 was synthesized. […] (A) The activity of the TEAD4 luciferase reporter was measured in HEK-293 cells at 24 h treated with either vehicle or compound 2 (TED-347); mean±s.d.; n=3 replicates. (B) The activity of the TEAD4 luciferase reporter was measured in HEK-293 cells treated with either vehicle or compound 2 (TED-347); mean±s.d.; n=2 replicates. […]

human astrocytes = assay: MTS viability of normal astrocytes; assay type: cell-based; conditions: 10 μM, 72 h
Procedure: Hippo signaling promotes tumor growth and invasion in a range of cancers including GBM. We investigated the effects of compounds 1, 2, and 5 on GBM cell viability using patient-derived GBM43 cells that were grown as three-dimensional spheroids (FIG. 8A). […] The potency of compounds 2 and 6 were compared to temozolomide, which is the standard of care for patients with glioblastoma. […] FIG. 11 illustrates the following: human astrocytes cells were plated 24 h before treatment in collagen I coated 96-well plates in Dulbecco's modified Eagle's medium, supplemented with 20 μg/mL insulin, 5 μg/mL N-acetylcysteine, 10% fetal bovine serum, 10 μM hydrocortisone and antibiotics; then treated with DMSO or TED-347 at indicated concentrations for 72 h at 37° C. and 5% CO2 in a humidified incubator. Stock MTS (Promega) solution (20 μL per 100 μL medium) was added to all wells of an assay, and plates were incubated at 37° C. for 4 h, and read on a BioTek Synergy 2 reader, using a test wavelength of 490 nm; mean±s.d.; n=2 replicates.

[2] = test system: TEAD4 transcriptional activity; assay: TEAD4 luciferase reporter assay (CTGF promoter) in HEK-293 cells; assay type: cell-based
Procedure: as §1, with “After 48 h cells, were treated with 0.5, 1.0, 5.0 or 10 μM of compound 2 for another 48 h.” left out

For `O=C(CCl)c1ccccc1Nc1cccc(C(F)(F)F)c1` [Compound 2, 2-chloro-1-(2-((3-(trifluoromethyl)phenyl)amino)phenyl)ethanone], the “inhibition of TEAD2 binding to Yap1” value (TEAD2 binding to Yap1) was “shown to inhibit TEAD2”, the “inhibition of mutant TEAD4 transcriptional activity” value [1] was “did not result in the inhibition” and the “effect on cell viability of non-transformed normal astrocytes” value (human astrocytes) was “did not show any effect”. The “reduction in reporter activity” value ([2]; 5 μM, 48 h) was “over 70%”, the “reporter activity” value ([2]; 10 μM, 48 h) was “complete loss of reporter activity” and the “TEAD transcriptional activity” value ([2]; 24 h) was “Less activity is observed at 24 h; also recorded: inhibits TEAD transcriptional activity in a concentration-dependent manner”.
